Test system: MDA-MB-231 cancer cells
Experiment: MTS assay, MDA-MB-231 cells
Assay type: cell-based
Set-up: concentration or dose not given beside the values
Conditions: not given
Protocol: (§1) Cells were maintained at 37° C., 5% CO2 in DMEM media supplemented with 1% fetal bovine serum, penicillin/streptomycin and fungizone (Invitrogen). Cells were seeded into 96-well tissue culture plates at 3000 per well and cultured at 37° C. for 18 hours. Test compounds were dissolved and diluted to 300× in DMSO then diluted 1:40 in DMEM. Cells were incubated with test compounds for 72 hours followed by incubation with tetrazolium compound (3-(4,5-dimethylthiazol-2-yl)-5-(3-carboxymethoxyphenyl)-2-(4-sulfophenyl)-2H-tetrazolium, inner salt; MTS) and the electron coupling reagent, phenazine methosulfate (PMS) for 4 hours. […] The ability of compounds to inhibit cell growth in this assay is correlated with the reduction of dehydrogenase enzyme activity found in metabolically active cells. The measurement of the absorbance of the formazan was assessed using a Victor (Perkin Elmer) microplate reader at 492 nm. The calculated IC50 value is the concentration of the test compound that causes a 50% decrease in the absorbance. Percent inhibition by representative compounds of the present invention in MDA-MB231 and DLD-1 cancer cells is shown in Table 4.

Compound | MDA-MB-231, MTS, 72 hours (% inhibition) [%]
CCc1ccc(CCNc2nccn3c(NC(=O)OC(C)C)nnc23)cc1 [Compound 62, isopropyl (8-{[2-(4-ethylphenyl)ethyl]amino}[1,2,4]triazolo[4,3-a]pyrazin-3-yl)carbamate] | 78
Nc1nnc2c(NCCc3ccc(Oc4ccccc4)cc3)nccn12 [Compound 93, N^8-[2-(4-phenoxyphenyl)ethyl][1,2,4]triazolo[4,3-a]pyrazine-3,8-diamine] | 99
CC(C)OC(=O)Nc1nnc2c(N(C)c3ccccn3)nccn12 [Compound 53, isopropyl {8-[methyl(pyridin-2-yl)amino][1,2,4]triazolo[4,3-a]pyrazin-3-yl}carbamate] | 99
CC(C)OC(=O)Nc1nnc2c(N3CCCCC3)nccn12 [Compound 59, isopropyl (8-piperidin-1-yl[1,2,4]triazolo[4,3-a]pyrazin-3-yl)carbamate] | 53

Test system: DLD-1 cancer cells
Experiment: MTS assay, DLD-1 cells
Assay type: cell-based
Set-up: concentration or dose not given beside the values
Conditions: not given
Protocol: as §1

Compound | DLD-1, MTS, 72 hours (% Inhibition) [%]
CCc1ccc(CCNc2nccn3c(NC(=O)OC(C)C)nnc23)cc1 [Compound 62, isopropyl (8-{[2-(4-ethylphenyl)ethyl]amino}[1,2,4]triazolo[4,3-a]pyrazin-3-yl)carbamate] | 93
Nc1nnc2c(NCCc3ccc(Oc4ccccc4)cc3)nccn12 [Compound 93, N^8-[2-(4-phenoxyphenyl)ethyl][1,2,4]triazolo[4,3-a]pyrazine-3,8-diamine] | 98
CC(C)OC(=O)Nc1nnc2c(N(C)c3ccccn3)nccn12 [Compound 53, isopropyl {8-[methyl(pyridin-2-yl)amino][1,2,4]triazolo[4,3-a]pyrazin-3-yl}carbamate] | 96
CC(C)OC(=O)Nc1nnc2c(N3CCCCC3)nccn12 [Compound 59, isopropyl (8-piperidin-1-yl[1,2,4]triazolo[4,3-a]pyrazin-3-yl)carbamate] | 48

Target: T1, FGFR2 (N549H) (Homo sapiens, UniProt P21802, N549H)
T1 construct: purchased Millipore 14-742
T1 sequence (P21802 22-821 N549H): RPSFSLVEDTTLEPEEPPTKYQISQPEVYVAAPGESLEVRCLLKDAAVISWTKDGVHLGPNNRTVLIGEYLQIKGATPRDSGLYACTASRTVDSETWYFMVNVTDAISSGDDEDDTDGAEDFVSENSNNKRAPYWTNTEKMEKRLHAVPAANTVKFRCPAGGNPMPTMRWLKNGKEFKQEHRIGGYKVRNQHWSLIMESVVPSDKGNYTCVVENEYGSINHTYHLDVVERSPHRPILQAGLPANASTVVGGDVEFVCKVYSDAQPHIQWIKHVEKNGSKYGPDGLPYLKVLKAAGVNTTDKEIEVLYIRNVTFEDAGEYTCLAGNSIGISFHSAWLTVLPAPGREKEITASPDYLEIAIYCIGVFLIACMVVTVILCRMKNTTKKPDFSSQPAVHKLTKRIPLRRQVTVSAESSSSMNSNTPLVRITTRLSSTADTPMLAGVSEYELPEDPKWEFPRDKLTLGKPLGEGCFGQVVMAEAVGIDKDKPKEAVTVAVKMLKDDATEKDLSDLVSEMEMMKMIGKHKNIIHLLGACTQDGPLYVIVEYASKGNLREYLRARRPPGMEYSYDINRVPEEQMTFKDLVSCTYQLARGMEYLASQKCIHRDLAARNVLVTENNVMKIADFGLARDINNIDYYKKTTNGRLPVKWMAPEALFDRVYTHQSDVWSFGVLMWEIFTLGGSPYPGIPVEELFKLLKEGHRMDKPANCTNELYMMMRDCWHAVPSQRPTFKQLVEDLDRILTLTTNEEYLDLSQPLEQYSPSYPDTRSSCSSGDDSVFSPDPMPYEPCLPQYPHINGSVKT
Experiment: FGFR2 kinase activity assay (fluorescent ELISA)
Assay type: biochemical
Conditions: 30 μM compound
Protocol: A fluorescent ELISA assay was developed to identify and characterize inhibitors of FGFR2 kinase. This heterogeneous assay utilized a biotinylated peptide with a tyrosine motif as a substrate and an anti-phospho-tyrosine antibody to measure phosphorylation of the substrate. The reaction was initiated by adding a test compound, 37 uM Pyk2 substrate (Midwest Biotech, cat. #MBT2383), 12.5 uM ATP (Roche, cat. #11 140 965 001), and 0.5 uM FGFR2 enzyme (Millipore, cat. #14-742) sequentially to a non-binding polypropylene V-well plate. All reagents were in assay buffer consisting of: 50 mM Tris-HCL, 0.02 mg/mL BSA, 10 mM MgCl2, 0.1 mM Na3VO4, 1 mM EGTA, […], 0.01% NP-40, 2 mM DTT, 10% Glycerol. The reaction was incubated for 60 minutes. As the reaction proceeded, FGFR2 phosphorylated tyrosines in the peptide. The reaction mixture was then moved to a blocked streptavidin coated Nunc Maxisorb plate (coated with 100 ng streptavidin from Pierce (cat #15-124) per well) allowing for the capture of the biotinylated peptide. Peptide was captured for 30 minutes at room temperature, the phosphorylation of peptide continues during this phase. The reaction was stopped by washing the Streptavidin plate 6 times with TBST. Phosphorylated peptide was detected by adding anti-phospho tyrosine antibody (purchased from Cell Signaling, cat. #9411, diluted 1:3000), unbound antibody was removed by washing 6 times with TBST. Secondary detection was performed using Alkaline Phosphatase tagged goat anti-mouse antibody (purchased from Pierce, cat. #31320, diluted 1:4000) for one hour. Unbound secondary antibody was removed by washing 6 times with TBST.
The fluorescent readout was initiated by the addition of Promega Attophos substrate (purchased from Promega; Kit catalog number: S1000, dilution=6 mg/10 mL), which when dephosphorylated by Alkaline phosphatase emitted a fluorescent signal of […] when excited by a signal […]. This reading was done on the Perkin Elmer Envision system. […] The signal was directly proportional to the activity of FGFR2 and compound inhibition of FGFR2 was monitored by a decrease in signal.

inhibition at 30 µM [%] | Compound
74.2 | CCc1ccc(CCNc2nccn3c(NC(=O)OC(C)C)nnc23)cc1 [Compound 62, isopropyl (8-{[2-(4-ethylphenyl)ethyl]amino}[1,2,4]triazolo[4,3-a]pyrazin-3-yl)carbamate]
82.9 | Nc1nnc2c(NCCc3ccc(Oc4ccccc4)cc3)nccn12 [Compound 93, N^8-[2-(4-phenoxyphenyl)ethyl][1,2,4]triazolo[4,3-a]pyrazine-3,8-diamine]
68.1 | CC(C)OC(=O)Nc1nnc2c(N(C)c3ccccn3)nccn12 [Compound 53, isopropyl {8-[methyl(pyridin-2-yl)amino][1,2,4]triazolo[4,3-a]pyrazin-3-yl}carbamate]
82.5 | CC(C)OC(=O)Nc1nnc2c(N3CCCCC3)nccn12 [Compound 59, isopropyl (8-piperidin-1-yl[1,2,4]triazolo[4,3-a]pyrazin-3-yl)carbamate]
